Values belong to the compound of their own block, whether it stands above or below them.
Columns and labels:
Caco-2 cell monolayers = experiment: Permeability of SAMe across Caco-2 cell monolayers with propyl gallate (Example 3); conditions: for apparent permeability coefficient Papp, apical to basolateral / apparent permeability coefficient Papp, basolateral to apical: SAMe salt alone
Method: The Caco-2 cell line is derived from a human colorectal carcinoma and is widely used for in vitro cell culture models for the study of gastrointestinal drug absorption (Stewart, B., (1995) Pharm. Res. 12:693). In these models, pure cell lines are grown on a semi-permeable membrane. Drug formulations are placed on the apical or basolateral side of the cell monolayer and transport is determined via measurement of drug concentrations on the other side of the membrane.
The Caco-2 cell line utilized here was from the American Type Culture Collection (ATCC). Caco-2 cells are grown in Dulbecco's modified Eagle's medium (DMEM, Gibco) supplemented with 20% FBS (fetal bovine serum, Gibco), 100 uM non-essential amino acids (NEAA, Gibco) and 2 mM L-glutamine (Gibco). A Beckton Dickinson BIOCOAT® HTS Caco-2 Assay System Kit was used resulting in 6.6×10^5 cells/cm^2 seeding density (BIOCOAT is a registered trademark of Collaborative Biomedical Products, Inc., Bedford, Massachusetts, USA). The cells used in transport studies were grown for 3 days before the experiments. The culturing conditions were 37° C. in an atmosphere of 5% CO2 and 100% humidity.
A 2 mM aqueous solution of SAMe disulfate tosylate was added on the apical or basolateral side according to the manufacturer's procedure for the Caco-2 kit.
The permeability (Papp) of SAMe is calculated using the following formula: […]
Where dQ/dt is the rate of permeation, Co is the initial concentration of test agent, and A is the area of the monolayer.

[1] = PAMPA permeability of SAMe with and without propyl gallate (Example 4); type: in vitro ADME; conditions: for Average Effective Permeability: SAMe 2 mM, 5 hr
Method: Using a PAMPA (parallel artificial membrane permeability assay) model, the permeability of SAMe was measured in the presence and absence of propyl gallate.
PAMPA methods were used to determine the permeability of substances from a donor compartment, through a lipid-infused artificial membrane into an acceptor compartment. A multi-well microtitre plate was used for the donor and a membrane/acceptor compartment is placed on top. At the beginning of the test, SAMe disulfate tosylate (with or without different concentrations of propyl gallate as indicated in Table 2 below) was added to the donor compartment, and the acceptor compartment remained drug-free. After an incubation period, the compartments were separated and the amount of SAMe was measured in each compartment. Mass balance allows calculation of SAMe that remains in the membrane.

[2] = Beagle pharmacokinetics of SAMe tablets with various doses of propyl gallate (Example 6); conditions: for AUC(0-inf.) ± SD / AUC(0-t) / Cmax average of individuals / T1/2 ± SD / Tmax ± SD: oral, fasted beagles
Method: Tablets comprising SAMe and various amounts of propyl gallate were generated by mixing S-adenosyl-L-methionine disulfate tosylate granules (equivalent to 400 mg of SAMe ion) with the various amounts of propyl gallate listed in Table 4 below. Each mixture was pressed into a tablet and coated followed by dissolution profiling and in vivo pharmacokinetic analysis using beagle dogs.
For in vivo studies, fasted male beagle dogs (7-10 kg) were used as described above. Each group (6 dogs for SAMe/propyl gallate and 6 dogs for the SAMe control lacking propyl gallate) were dosed with a single orally administered enteric coated tablet, under fasted conditions, followed by 5 mL of purified water orally with a syringe to facilitate swallowing. Pharmacokinetic blood samples (2 mL each) for SAMe analysis were collected from the jugular vein using the following time points: pre-dose, 20 and 40 minutes, 1, 1.5, 2, 3, 4, 6, and 8 hours after treatment. The venipuncture blood samples were collected into tubes containing the anticoagulant K2-EDTA, and stored on wet ice pending processing. Following collection, samples were centrifuged (at 4° C.) to separate the plasma fraction from the blood cells. The resulting plasma fraction was recovered and stored frozen (at −80° C.) using polypropylene tubes pending bioanalytical analysis.
The concentration of SAMe in dog plasma was determined using the well established LC/MS/MS method. This method employs stable-isotope dilution liquid chromatography-electrospray […] tandem mass spectrometry (LC-ESI-MS/MS) to determine SAMe and SAH in plasma. The analysis used to calculate the main pharmacokinetic parameters (Cmax, Tmax and AUC) was conducted using GraphPad Prism® 5 software.

[3] = background statement; cited from earlier work
[4] = Plasma SAMe in beagles after tablets of SAMe co-formulated with alkyl gallates (Example 1); type: in vivo, Beagle dogs; conditions: single enteric coated tablet, 400 mg SAMe ion co-formulated with 25 mg gallic acid ester, fasted male beagles, FIG. 1
Method: Tablets comprising SAMe and various alkyl gallates of different chemical structure were generated by mixing SAMe with either methyl gallate, ethyl gallate, butyl gallate, isobutyl gallate, isoamyl gallate or octyl gallate (see structures below). Tablets were then administered to Beagle dogs and blood samples were withdrawn over time. Analysis of concentrations of SAMe in plasma was used to compare the effects of these gallic acid esters on the uptake of orally administered SAMe in the blood.
Tablets were generated by mixing 400 mg SAMe ion (from SAMe disulfate tosylate) with 25 mg gallic acid ester along with excipients (microcrystalline cellulose, sodium starch glycolate, silicon dioxide, and magnesium stearate) to make up the ˜1025 mg tablet. A commercial seal coat and then a commercial enteric coat was applied to the tablets prior to dissolution testing. Detailed dissolution profiling was performed according to USP standards at either pH 6.8 or 6.0 on each set of tablets to ensure that adequate dissolution was achieved prior to in vivo pharmacokinetic analysis.
The study protocol was approved by the institution's Animal Care Committee, and all animals were cared for according to regulations proposed by Agriculture Canada and the USDA.
Ten different formulations were tested in the present study. 400 mg SAMe co-formulated with 25 mg propyl gallate was compared to: SAMe control tablets (i.e., with no propyl gallate); SAMe tablets co-administered with separate 25 mg propyl gallate tablets; a commercially available SAMe product (400 mg); or 400 mg SAMe with 25 mg of either methyl gallate, ethyl gallate, butyl gallate, isobutyl gallate, isoamyl gallate or octyl gallate.

[5] = Plasma SAMe in beagles after capsules of SAMe with gallate-related molecules (Example 2); type: in vivo, Beagle dogs; conditions: single capsule, 100 mg SAMe ion with 100 mg agent, versus BHT, propyl paraben and gallic acid, FIGS. 2A and 2B
Method: BHT, propyl paraben and propyl gallate are food-grade antioxidants which have often been used in combination. […] The capsules also contained additional excipients (Microcrystalline cellulose, Sodium Starch Glycolate, Colloidal Silicon Dioxide, and Magnesium Stearate). Capsules were manually filled and in some embodiments, a layer of commercial seal coat was applied to the capsules using a fluid bed coater. Beagle dogs were administered a single orally delivered dose as described above.

[6] = control tablet 400 mg SAMe, 0 mg Propyl Gallate
[7] = tablet 400 mg SAMe, 6.25 mg Propyl Gallate
[8] = tablet 400 mg SAMe, 25 mg Propyl Gallate
[9] = tablet 400 mg SAMe, 100 mg Propyl Gallate

Compound: C[S+](CC[C@H](N)C(=O)[O-])C[C@H]1O[C@@H](n2cnc3c(N)ncnc32)[C@H](O)[C@@H]1O.O=S(=O)(O)CCCCS(=O)(=O)O (stereo partly drawn) [SAMe 1,4 butanedisulfonate]
apparent permeability coefficient Papp, apical to basolateral (Caco-2 cell monolayers): 0.5 ×10⁻⁶ cm/s
apparent permeability coefficient Papp, basolateral to apical (Caco-2 cell monolayers): 0.6 ×10⁻⁶ cm/s

Compound: C[S+](CC[C@H](N)C(=O)[O-])C[C@H]1O[C@@H](n2cnc3c(N)ncnc32)[C@H](O)[C@@H]1O (stereo partly drawn) [SAMe, S-adenosyl-L-methionine]
Average Permeability Coefficient Apical→Basolateral (Caco-2 cell monolayers; Caco-2): 1.6 ×10⁻⁶ cm/s
Average Permeability Coefficient Basolateral→Apical (Caco-2 cell monolayers; Caco-2): 1.7 ×10⁻⁶ cm/s
transport of SAMe across the PAMPA membrane [1]: essentially no transport
Average Effective Permeability ([1]; Propyl Gallate 0 mM): 0.42 ×10⁻⁶ cm/s
Average Effective Permeability ([1]; Propyl Gallate 0.2 mM): 0.2 ×10⁻⁶ cm/s
Average Effective Permeability ([1]; Propyl Gallate 2 mM): 0.48 ×10⁻⁶ cm/s
AUC(0-inf.) ± SD [2, 6]: 15,186 ± 6,831 hr*ng/mL
AUC(0-t) [2, 6]: 14,756 hr*ng/mL
Cmax average of individuals [2, 6]: 6731 ng/mL
T1/2 ± SD [2, 6]: 1.4 ± 0.4 h
Tmax ± SD [2, 6]: 1.8 ± 0.7 h
AUC(0-inf.) ± SD [2, 7]: 21,734 ± 9848 hr*ng/mL
AUC(0-t) [2, 7]: 21,395 hr*ng/mL
Cmax average of individuals [2, 7]: 11,269 ng/mL
T1/2 ± SD [2, 7]: 1.4 ± 0.5 h
Tmax ± SD [2, 7]: 1.4 ± 0.8 h
AUC(0-inf.) ± SD [2, 8]: 25,159 ± 13,033 hr*ng/mL
AUC(0-t) [2, 8]: 24,847 hr*ng/mL
Cmax average of individuals [2, 8]: 15,333 ng/mL
T1/2 ± SD [2, 8]: 1.5 ± 0.4 h
Tmax ± SD [2, 8]: 1.2 ± 0.5 h
AUC(0-inf.) ± SD [2, 9]: 34,305 ± 18,484 hr*ng/mL
AUC(0-t) [2, 9]: 34,078 hr*ng/mL
Cmax average of individuals [2, 9]: 18,700 ng/mL
T1/2 ± SD [2, 9]: 1.0 ± 0.2 h
Tmax ± SD [2, 9]: 1.6 ± 0.7 h
uptake of exogenous SAMe [3]: < 5%

Compound: CCCCOC(=O)c1cc(O)c(O)c(O)c1 [butyl gallate]
maximum SAMe plasma concentration (Cmax), uptake into the plasma [4]: did not result in pharmacokinetics even close to that of SAMe-propyl gallate formulations

maximum SAMe plasma concentration (Cmax), uptake into the plasma [4]: superior uptake into the plasma
Compound: CCOC(=O)c1cc(O)c(O)c(O)c1 [ethyl gallate]

maximum SAMe plasma concentration (Cmax), uptake into the plasma [4]: superior uptake into the plasma
Compound: CC(C)CCOC(=O)c1cc(O)c(O)c(O)c1 [isoamyl gallate]

maximum SAMe plasma concentration (Cmax), uptake into the plasma [4]: superior uptake into the plasma
Compound: CCCCCCCCOC(=O)c1cc(O)c(O)c(O)c1 [octyl gallate]

maximum SAMe plasma concentration (Cmax), uptake into the plasma [4]: superior uptake into the plasma
effect of propyl gallate on SAMe transport across the PAMPA membrane ([1]; propyl gallate at 2.0 mM): no effect on SAMe transport
Compound: CCCOC(=O)c1cc(O)c(O)c(O)c1 [propyl gallate]
plasma SAMe Cmax and AUC, SAMe uptake into the blood [5]: superior and surprising ability of propyl gallate to increase SAMe uptake into the blood
relationship of propyl gallate dose with SAMe uptake in vivo ([2]; dog, in vivo): dose-response relationship with SAMe uptake in vivo

Compound: S-adenosyl-L-methionine disulfate tosylate [SAMe disulfate tosylate]
apparent permeability coefficient Papp, apical to basolateral (Caco-2 cell monolayers): 0.41 ×10⁻⁶ cm/s
apparent permeability coefficient Papp, basolateral to apical (Caco-2 cell monolayers): 0.5 ×10⁻⁶ cm/s
